In PubChem BioAssay (NCI) one finds GI50 and TGI data, which are given here for six compounds.

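Exposure lasted 48 hours, with cells grown in 96-well plates and compounds tested at five concentrations. GI50 marks 50% less growth. TGI: concentration producing complete growth inhibition.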

Test systems include HCT-15 colon; MDA-MB-435; UACC-62 melanoma; 786-0 renal; LOX IMVI melanoma; SF-539 CNS; SK-MEL-28 melanoma; MDA-MB-231 breast; SF-295 CNS; SW-620 colon.
What all share (assay): NCI-60 cell line screen, 48 h

On to `O=C(/C=C\c1ccc(Cl)c(Cl)c1)c1ccccc1`, for which the GI50 was 2.84 µM in the assay on HCT-15 colon; 4.48 µM with MDA-MB-435; 9.33 µM in the assay on UACC-62 melanoma; 8.07 µM in the assay on 786-0 renal; 2.07 µM in the assay on LOX IMVI melanoma; 15.3 µM with SF-539 CNS. The GI50 in the assay on SK-MEL-28 melanoma is 13.9 µM; with MDA-MB-231 breast, 12.3 µM; in the assay on SF-295 CNS, 10.9 µM; in the assay on SW-620 colon, 2.21 µM. For the same compound, the TGI in the assay with HCT-15 colon was 10.3 µM; with MDA-MB-435 it was 16.7 µM; in the assay on UACC-62 melanoma, 21.6 µM; in the assay with 786-0 renal it was 21.6 µM; in the assay on LOX IMVI melanoma, 4.48 µM; with SF-539 CNS, 29.6 µM. Moreover, the TGI in the assay on SK-MEL-28 melanoma is 27.3 µM; with MDA-MB-231 breast, 25.2 µM; in the assay on SF-295 CNS, 23.2 µM; in the assay on SW-620 colon, 5.52 µM.
As to `Oc1c(Br)cc(Br)c2cccnc12`, the GI50 with HCT-15 colon was 4.84 µM; in the assay on MDA-MB-435, 3.62 µM; with UACC-62 melanoma it was 2.16 µM; in the assay on 786-0 renal it was 2.52 µM; with LOX IMVI melanoma, 2.94 µM; in the assay with SF-539 CNS it was 3.17 µM. Further, the GI50 is 4.79 µM in the assay on SK-MEL-28 melanoma, 4.43 µM with MDA-MB-231 breast, 2.26 µM with SF-295 CNS and 4.58 µM with SW-620 colon. Further, the TGI in the assay with HCT-15 colon was 31.1 µM; in the assay with MDA-MB-435, > 100 µM; in the assay on UACC-62 melanoma, 7.37 µM; in the assay on 786-0 renal it was 5.91 µM; in the assay with LOX IMVI melanoma, 14.1 µM; in the assay on SF-539 CNS, 7.63 µM. In addition, the TGI in the assay on SK-MEL-28 melanoma was > 100 µM; with MDA-MB-231 breast it was 28.9 µM; with SF-295 CNS it was 6.53 µM; with SW-620 colon, 72.8 µM.
Take `C#Cc1cccc(NC(=O)Nc2cccc(NC(=O)CCl)c2)c1`: the GI50 in the assay on HCT-15 colon is 11.8 µM; in the assay with MDA-MB-435, 24.2 µM; in the assay with UACC-62 melanoma, 33.1 µM; in the assay on 786-0 renal, 25 µM; with LOX IMVI melanoma, 13.2 µM; in the assay on SF-539 CNS, 14 µM. The GI50 with SK-MEL-28 melanoma was > 82.5 µM; in the assay on MDA-MB-231 breast, 22.9 µM; in the assay with SF-295 CNS it was > 82.5 µM; in the assay with SW-620 colon, 16.9 µM. In addition, the TGI with HCT-15 colon is 26.7 µM; in the assay on MDA-MB-435, > 82.5 µM; with UACC-62 melanoma, > 82.5 µM; in the assay with 786-0 renal, > 82.5 µM; in the assay on LOX IMVI melanoma it was 27 µM; in the assay on SF-539 CNS, 27.8 µM. The TGI was > 82.5 µM in the assay with SK-MEL-28 melanoma, 65.2 µM with MDA-MB-231 breast, > 82.5 µM in the assay on SF-295 CNS and 37.3 µM with SW-620 colon.
For `N#Cc1c(-c2ccc(Cl)cc2)n([O-])c2ccccc2[n+]1=O`, the GI50 with HCT-15 colon was 13.7 µM; with MDA-MB-435, 13.7 µM; with UACC-62 melanoma, 17.2 µM; in the assay on 786-0 renal, 12.5 µM; in the assay with LOX IMVI melanoma, 5.72 µM; in the assay with SF-539 CNS, 17.9 µM. In addition, the GI50 was 44.8 µM with SK-MEL-28 melanoma, 6.95 µM with MDA-MB-231 breast, 16.4 µM with SF-295 CNS and 12.7 µM with SW-620 colon. Further, the TGI in the assay on HCT-15 colon came to 37.5 µM; with MDA-MB-435, 27 µM; with UACC-62 melanoma, 33.6 µM; in the assay with 786-0 renal, 25 µM; in the assay with LOX IMVI melanoma, 20.3 µM; in the assay on SF-539 CNS it was 36 µM. The TGI is > 100 µM in the assay on SK-MEL-28 melanoma, 24.2 µM in the assay on MDA-MB-231 breast, 30.3 µM in the assay on SF-295 CNS and 34.1 µM in the assay on SW-620 colon.
With `Cc1nn(-c2ccccc2)c2ncc3c(c12)C(=O)N(Cc1ccccc1)C3=O`, the GI50 was > 100 µM in the assay on HCT-15 colon; > 100 µM in the assay on MDA-MB-435; 21.5 µM with UACC-62 melanoma; 1.94 µM in the assay on 786-0 renal; 4.58 µM with LOX IMVI melanoma; 12.2 µM with SF-539 CNS. Also, the GI50 in the assay on SK-MEL-28 melanoma is > 100 µM; in the assay on MDA-MB-231 breast, 5.11 µM; in the assay on SF-295 CNS, 3.14 µM; in the assay on SW-620 colon it was > 100 µM. For the same compound, the TGI with HCT-15 colon is > 100 µM; with MDA-MB-435, > 100 µM; in the assay with UACC-62 melanoma, > 100 µM; in the assay with 786-0 renal, 5.12 µM; with LOX IMVI melanoma it was > 100 µM; with SF-539 CNS it was 56.7 µM. In addition, the TGI with SK-MEL-28 melanoma was > 100 µM; in the assay with MDA-MB-231 breast, 50.2 µM; in the assay with SF-295 CNS, 10.7 µM; in the assay with SW-620 colon, > 100 µM.
For the compound `O=C(/C=C/CN1CCCCC1)Nc1cc2c(Nc3ccc(F)c(Cl)c3F)ncnc2cc1OCCOC(F)F`, the GI50 in the assay on HCT-15 colon is 0.633 µM; in the assay with MDA-MB-435, 1.35 µM; in the assay on UACC-62 melanoma it was 1.63 µM; in the assay with 786-0 renal it was 0.781 µM; with LOX IMVI melanoma it was 1.22 µM; with SF-539 CNS it was 1.12 µM. Moreover, the GI50 with SK-MEL-28 melanoma was 2.27 µM; in the assay on MDA-MB-231 breast, 0.882 µM; in the assay on SF-295 CNS, 1.72 µM; in the assay with SW-620 colon, 1.49 µM. Further, the TGI in the assay with HCT-15 colon turned out to be 3.86 µM; in the assay with MDA-MB-435 it was 5.81 µM; with UACC-62 melanoma, 5.11 µM; in the assay on 786-0 renal, 6.38 µM; in the assay with LOX IMVI melanoma it was 2.59 µM; in the assay on SF-539 CNS, 3.56 µM. Further, the TGI in the assay on SK-MEL-28 melanoma came to 9.19 µM; in the assay on MDA-MB-231 breast it was 4.88 µM; in the assay with SF-295 CNS, 6.42 µM; in the assay with SW-620 colon, 8.17 µM.
